Molecules are shown by their SMILES. Several values for one entry are separate records, joined by “and”; a condition that tells them apart may be missing. Identical values can stand only once.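 Exposure lasted 48 hours, with cells grown in 96-well plates and compounds tested at five concentrations. At the GI50, growth is halved. TGI is the concentration that stops growth completely.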 Where a SMILES comes first, the peptide text is derived from it. [ ]: non-standard residue; d: D form. The star is where a group is joined. ξ: configuration not given here. NMeY = CN[C@@H](Cc1ccc(O)cc1)C(=O)O; Cbz = O=C(OCc1ccccc1)*; ξA = CC(N)C(=O)O

Experimental findings from PubChem BioAssay (NCI) are described below.

Among the test systems are SNB-19 CNS; DU-145 prostate; A549 NSCLC; HCT-116 colon; NCI-H23 lung; U251 CNS; CCRF-CEM leukemia; NCI-H522 lung; 786-0 renal; OVCAR-4 ovarian; A498 renal.
Common to all, as to assay: DTP human tumour cell line panel, 48 h

For `CCOC(=O)CCC(NC(=O)OCc1ccccc1)C(=O)NNC(=O)OC(C)(C)C` (configuration not stated), the TGI in the assay with SNB-19 CNS, in the assay with DU-145 prostate, in the assay on A549 NSCLC, in the assay with HCT-116 colon, in the assay with NCI-H23 lung and in the assay with U251 CNS was greater than 100 µM throughout. Moreover, the TGI in the assay with CCRF-CEM leukemia, in the assay on NCI-H522 lung, in the assay with 786-0 renal, in the assay on OVCAR-4 ovarian and in the assay on A498 renal was greater than 100 µM throughout.

Turning to `COc1ccccc1C(=O)c1c(N2CCCCC2)c(=O)c1=O`, the TGI in the assay with SNB-19 CNS, in the assay with DU-145 prostate, with A549 NSCLC, in the assay on HCT-116 colon, with NCI-H23 lung and in the assay on U251 CNS was greater than 100 µM in each case. Further, the TGI in the assay with CCRF-CEM leukemia, in the assay on NCI-H522 lung, in the assay with 786-0 renal, in the assay on OVCAR-4 ovarian and in the assay on A498 renal was greater than 100 µM throughout.

Consider `COc1ccc(C[C@@H](C(=O)NCC(N)=O)N(C)C(=O)[C@@H]2CCCN2C(=O)[C@H](CC(C)C)NC(=O)C(C)NC(=O)OCc2ccccc2)cc1` (some centres not stated) (Cbz-[ξA]LP[NMeY](Me)G-NH2), for which the TGI in the assay on SNB-19 CNS, in the assay on DU-145 prostate, in the assay with A549 NSCLC, with HCT-116 colon, in the assay with NCI-H23 lung and with U251 CNS was greater than 100 µM each time. Also, the TGI with CCRF-CEM leukemia, in the assay on NCI-H522 lung, in the assay on 786-0 renal, with OVCAR-4 ovarian and in the assay with A498 renal was greater than 100 µM throughout.

In the case of `O=C1c2ccccc2NC2C(O)c3ccccc3N12` (configuration not stated), the TGI was greater than 100 µM in the assay on SNB-19 CNS; greater than 100 µM with DU-145 prostate; 61.5 µM in the assay with A549 NSCLC; greater than 100 µM in the assay with HCT-116 colon; 84.3 µM in the assay on NCI-H23 lung; greater than 100 µM in the assay on U251 CNS. In addition, the TGI with CCRF-CEM leukemia was 54.6 µM; in the assay with NCI-H522 lung it was greater than 100 µM; with 786-0 renal, greater than 100 µM; with OVCAR-4 ovarian, greater than 100 µM; with A498 renal it was 37.9 µM.

Regarding `CC(=O)N[C@@H](Cc1ccc(O)cn1)C(=O)NCc1ccc2c(c1)OCO2`, the TGI with SNB-19 CNS, in the assay with DU-145 prostate, with A549 NSCLC, with HCT-116 colon, in the assay on NCI-H23 lung and in the assay on U251 CNS was greater than 100 µM in each case. Further, the total growth inhibition concentration (TGI) in the assay on CCRF-CEM leukemia, in the assay with NCI-H522 lung, in the assay on 786-0 renal, with OVCAR-4 ovarian and with A498 renal was greater than 100 µM each time.

Consider `CCCCCCCCCCCCCCCCP(=O)(O)OP(=O)(O)OCC1OC(n2ccc(N)nc2=O)C(O)C1O` (configuration not stated), for which the GI50 in the assay on SNB-19 CNS was 70.5 µM and 16.1 µM; with NCI-H23 lung it was > 100 µM and 13.9 µM; with U251 CNS it was 43.1 µM and 13.5 µM; in the assay with NCI-H522 lung it was > 100 µM and 24.6 µM; with OVCAR-4 ovarian it was 91.4 µM and 43.8 µM. The TGI was greater than 100 µM in the assay on SNB-19 CNS; greater than 100 µM in the assay on DU-145 prostate; greater than 100 µM in the assay on A549 NSCLC; > 100 µM and 37.4 µM with HCT-116 colon; greater than 100 µM with NCI-H23 lung; > 100 µM and 38 µM with U251 CNS. The TGI with CCRF-CEM leukemia is > 100 µM and 21.4 µM; in the assay on NCI-H522 lung, greater than 100 µM; with 786-0 renal it was > 100 µM and 27.6 µM; in the assay with OVCAR-4 ovarian, greater than 100 µM; in the assay on A498 renal, greater than 47.9 µM.

Take `Cc1[nH]c(=O)nc(N/N=C/c2ccc(Cl)c(Cl)c2)c1C(=O)Nc1ccc(Cl)c(Cl)c1`: the TGI is 32 µM in the assay with SNB-19 CNS; greater than 41.2 µM in the assay on DU-145 prostate; 38.9 µM with A549 NSCLC; greater than 20.5 µM in the assay on HCT-116 colon; greater than 44.9 µM in the assay on NCI-H23 lung; 18.5 µM in the assay on U251 CNS. For the same compound, the TGI is greater than 23 µM in the assay on CCRF-CEM leukemia; 44.7 µM in the assay with NCI-H522 lung; greater than 39 µM in the assay with 786-0 renal; 11 µM in the assay with OVCAR-4 ovarian; 7.92 µM with A498 renal.

As for `CC1(C)OC[C@@H](/C=C\CCO[Si](c2ccccc2)(c2ccccc2)C(C)(C)C)N1C(=O)c1ccccc1`, the TGI was greater than 100 µM in the assay on SNB-19 CNS; 95.9 µM in the assay on DU-145 prostate; 23.2 µM in the assay with A549 NSCLC; 21.4 µM in the assay on HCT-116 colon; 96.7 µM in the assay with NCI-H23 lung; 45.5 µM with U251 CNS. The TGI in the assay with CCRF-CEM leukemia was 59.7 µM; in the assay on NCI-H522 lung, 18.8 µM; in the assay with 786-0 renal it was 28 µM; in the assay with OVCAR-4 ovarian, greater than 100 µM; in the assay with A498 renal, 44.8 µM.

Regarding `CCCCCCCCCCCCOC1C(COCCN2CCCC2)OC2OC(C)(C)OC21` (configuration not stated), the TGI in the assay on SNB-19 CNS came out at 10.2 µM; with DU-145 prostate it was 23.1 µM; with A549 NSCLC it was 16.1 µM; in the assay with HCT-116 colon it was 3.13 µM; with NCI-H23 lung it was 3.48 µM; in the assay on U251 CNS it was 3.12 µM. Besides, the TGI amounted to 5.39 µM with CCRF-CEM leukemia; 2.53 µM with NCI-H522 lung; 3.08 µM in the assay with 786-0 renal; 7.6 µM in the assay on OVCAR-4 ovarian; 27.9 µM in the assay with A498 renal.

As to `O=C1CCSSCCC(=O)Nc2ccccc2N1`, the TGI in the assay with SNB-19 CNS, with DU-145 prostate, with A549 NSCLC, with HCT-116 colon, with NCI-H23 lung and with U251 CNS was greater than 100 µM throughout. Also, the TGI with CCRF-CEM leukemia, in the assay on NCI-H522 lung, with 786-0 renal, with OVCAR-4 ovarian and with A498 renal was greater than 100 µM in each case.

Take `CCOC(=O)c1cc(-c2ccc(OC)c(OC)c2)c[nH]1`: the TGI with SNB-19 CNS, in the assay with DU-145 prostate, in the assay on A549 NSCLC, in the assay with HCT-116 colon, in the assay on NCI-H23 lung and in the assay on U251 CNS was greater than 10 µM in each case. For the same compound, the total growth inhibition concentration (TGI) in the assay on CCRF-CEM leukemia, in the assay on NCI-H522 lung, with 786-0 renal, in the assay with OVCAR-4 ovarian and in the assay with A498 renal was greater than 10 µM each time.

Regarding `CC1=NN(c2ccc(C)cc2)C2(C1)SCC(=O)N2c1nc2ccccc2s1` (configuration not stated), the total growth inhibition concentration (TGI) in the assay on SNB-19 CNS was greater than 100 µM; in the assay with DU-145 prostate it was greater than 100 µM; in the assay on A549 NSCLC, greater than 100 µM; with HCT-116 colon, 51.1 µM; in the assay with NCI-H23 lung, 77.5 µM; in the assay on U251 CNS, 65.5 µM. Further, the TGI in the assay on CCRF-CEM leukemia was 28.4 µM; in the assay with NCI-H522 lung, 52.6 µM; in the assay with 786-0 renal, 71 µM; in the assay with OVCAR-4 ovarian, greater than 100 µM; in the assay on A498 renal it was 70.6 µM.

`CC(C)=CC(=O)O[C@@H]1CC(C)(C)CC2C3=CCC4[C@]56CC[C@](O)(OC5)C(C)(C)C6CC[C@@]4(C)C3(C)CC[C@]21C(=O)O` (some centres not stated): the concentration for total growth inhibition (TGI) in the assay on SNB-19 CNS was greater than 100 µM; in the assay with DU-145 prostate, greater than 100 µM; in the assay with A549 NSCLC it was greater than 100 µM; in the assay on HCT-116 colon it was greater than 100 µM; with NCI-H23 lung, 89.4 µM; in the assay with U251 CNS, greater than 100 µM. Also, the TGI with CCRF-CEM leukemia, with NCI-H522 lung, in the assay on 786-0 renal, in the assay on OVCAR-4 ovarian and with A498 renal was greater than 100 µM throughout.

Turning to `CCCCn1cc(C(=O)O)c(=O)c2c3sccc3ccc21`, the concentration for total growth inhibition (TGI) in the assay on SNB-19 CNS, in the assay on DU-145 prostate, in the assay on A549 NSCLC, with HCT-116 colon, in the assay on NCI-H23 lung and in the assay on U251 CNS was greater than 100 µM each time. In addition, the TGI in the assay on CCRF-CEM leukemia, in the assay with NCI-H522 lung, with 786-0 renal, with OVCAR-4 ovarian and in the assay with A498 renal was greater than 100 µM in each case.

As to `CNc1ccc2nc(-c3ccc(OC(=O)N(C)C)cc3)cn2c1`, the TGI is 29.6 µM in the assay on SNB-19 CNS; greater than 100 µM in the assay with DU-145 prostate; 32.4 µM with A549 NSCLC; 33.5 µM with HCT-116 colon; 40.4 µM with NCI-H23 lung; 28.8 µM with U251 CNS. The TGI with CCRF-CEM leukemia was found to be 32.3 µM; in the assay on NCI-H522 lung, 28.8 µM; in the assay on 786-0 renal it was 27.6 µM; in the assay on OVCAR-4 ovarian, 31.6 µM; in the assay with A498 renal it was 32.2 µM.

On to `CSc1c(C(C)=O)c(O)n(-c2ccc(Cl)cc2)c(=O)c1C#N`, for which the TGI with SNB-19 CNS, in the assay on DU-145 prostate, in the assay on A549 NSCLC, in the assay with HCT-116 colon, with NCI-H23 lung and with U251 CNS was greater than 100 µM throughout. For the same compound, the TGI with CCRF-CEM leukemia is 54.3 µM; in the assay on NCI-H522 lung it was 21.9 µM; with 786-0 renal it was greater than 100 µM; in the assay with OVCAR-4 ovarian, greater than 100 µM; in the assay with A498 renal, 93.5 µM.

Take `O=C1c2ccccc2S(=O)(=O)c2ccccc21`: the TGI in the assay on SNB-19 CNS, in the assay with DU-145 prostate, with A549 NSCLC, in the assay with HCT-116 colon, in the assay with NCI-H23 lung and with U251 CNS was greater than 100 µM each time. For the same compound, the TGI with CCRF-CEM leukemia, in the assay on NCI-H522 lung, with 786-0 renal, with OVCAR-4 ovarian and in the assay with A498 renal was greater than 100 µM in each case.

For orientation: TGI means the concentration giving total growth inhibition. Higher therefore signals less potent growth arrest. By GI50 is commonly meant the concentration giving 50% growth inhibition.
